This is an account of results in patent US10583140B2, “Ingenol analogs, pharmaceutical compositions and methods of use thereof” (GlaxoSmithKline Intellectual Property Development Limited, priority 2016, dated 2020).

By EC50 is commonly meant the concentration that produces a half-maximal response.

The test system of this assay is HIV-infected Jurkat cell clones (C16, I15 and N6). Briefly: Jurkat HIV Latency assay (HIV activation, luciferase). It is filed as cell-based. The following applies: Homo sapiens, HIV activation by HIV expressed luciferase (Steady-Glo), cells incubated with compound 24 hours at 37° C. The procedure: For the Jurkat HIV Latency assay, compounds are dissolved and titrated in DMSO and diluted 100-fold in assay medium (RPMI-1640 containing 10% fetal bovine serum) containing an equal mixture of three HIV-infected Jurkat cell clones (C16, I15 and N6) at a total concentration of 1-2×10e^5 cells/mL. To test stability, compounds are pre-incubated in an assay medium for 48 hours at 37° C. prior to adding cells (48 hr EC50). Compounds that induce HIV expression result in a dose-dependent production of the HIV expressed luciferase enzyme. After the incubation of cells with compound for 24 hours at 37° C., HIV activation and cytotoxicity are determined by measuring luminescence after the addition of Promega Steady-Glo® Luciferase Assay reagent or CellTiter-Glo® Luminescent Cell Viability Assay reagent, respectively.
As for `CC(=O)OCC1=C[C@@H]2C(=O)[C@]3(C=C(C)[C@H](OC(=O)N(C)c4ccc(Cl)cc4)[C@@]3(O)[C@@H]1O)[C@H](C)C[C@@H]1[C@H]2C1(C)C` [Example 1, ((1aR,2S,5R,5aS,6S,8aS,9R,10aR)-6-(((4-chlorophenyl) (methyl)carbamoyl)oxy)-5,5a-dihydroxy-1,1,7,9-tetramethyl-11-oxo-1a,2,5,5a,6,9,10,10a-octahydro-1H-2,8a-methanocyclopenta[a]cyclopropa[e][10]annulen-4-yl)methyl acetate], the EC50 came out at 7 nM.

As for `CC1=C[C@]23C(=O)[C@@H](C=C(COC(=O)c4ccccc4)[C@@H](O)[C@]2(O)[C@H]1OC(=O)N(C)c1ccc(Cl)cc1)[C@H]1[C@@H](C[C@H]3C)C1(C)C` [Example 2, ((1aR,2S,5R,5aS,6S,8aS,9R,10aR)-6-(((4-chlorophenyl) (methyl)carbamoyl)oxy)-5,5a-dihydroxy-1,1,7,9-tetramethyl-11-oxo-1a,2,5,5a,6,9,10,10a-octahydro-1H-2,8a-methanocyclopenta [a]cyclopropa[e][10]annulen-4-yl)methyl benzoate], the concentration for a half-maximal effect (EC50) amounted to 22 nM.

On to `CC1=C[C@]23C(=O)[C@@H](C=C(CN4C(=O)c5ccccc5C4=O)[C@@H](O)[C@]2(O)[C@H]1OC(=O)N(C)c1ccc(Cl)cc1)[C@H]1[C@@H](C[C@H]3C)C1(C)C` [Example 3, (1aR,2S,5R,5aS,6S,8aS,9R,10aR)-4-((1,3-dioxoisoindolin-2-yl)methyl)-5,5a-dihydroxy-1,1,7,9-tetramethyl-11-oxo-1a,2,5,5a,6,9,10,10a-octahydro-1H-2,8a-methanocyclopenta[a]cyclopropa[e][10]annulen-6-yl (4-chlorophenyl) (methyl)carbamate], for which the EC50 amounted to 1110 nM.

In the case of `CC1=C[C@]23C(=O)[C@@H](C=C(CO)[C@@H](O)[C@]2(O)C1=O)[C@H]1[C@@H](C[C@H]3C)C1(C)C` [Example 4, (1aR,2S,5R,5aS,8aS,9R,10aR)-5,5a-dihydroxy-4-(hydroxymethyl)-1,1,7,9-tetramethyl-1a,2,5,5a,10,10a-hexahydro-1H-2,8a-methanocyclopenta[a]cyclopropa[e][10]annulene-6,11 (9H)-dione], the EC50 came to 4940 nM. On to `CC1=C[C@]23C(=O)[C@@H](C=C(COC(=O)N(C)c4ccc(Cl)cc4)[C@@H](O)[C@]2(O)[C@H]1O)[C@H]1[C@@H](C[C@H]3C)C1(C)C` [Example 5, ((1aR,2S,5R,5aR,6S,8aS,9R,10aR)-5,5a,6-trihydroxy-1,1,7,9-tetramethyl-11-oxo-1a,2,5,5a,6,9,10,10a-octahydro-1H-2,8a-methanocyclopenta[a]cyclopropa[e][10]annulen-4-yl)methyl (4-chlorophenyl)(methyl)carbamate], for which the EC50 is 616 nM. Take `CC1=C[C@]23C(=O)[C@@H](C=C(COC(=O)Nc4ccccc4)[C@@H](O)[C@]2(O)[C@H]1O)[C@H]1[C@@H](C[C@H]3C)C1(C)C` [Example 6, ((1aR,2S,5R,5aR,6S,8aS,9R,10aR)-5,5a,6-trihydroxy-1,1,7,9-tetramethyl-11-oxo-1a,2,5,5a,6,9,10,10a-octahydro-1H-2,8a-methanocyclopenta[a]cyclopropa[e][10]annulen-4-yl)methyl phenylcarbamate]: the EC50 worked out at 3680 nM.

On to `CCCCNC(=O)OCC1=C[C@@H]2C(=O)[C@]3(C=C(C)[C@H](O)[C@@]3(O)[C@@H]1O)[C@H](C)C[C@@H]1[C@H]2C1(C)C` [Example 7, ((1aR,2S,5R,5aR,6S,8aS,9R,10aR)-5,5a,6-trihydroxy-1,1,7,9-tetramethyl-11-oxo-1a,2,5,5a,6,9,10,10a-octahydro-1H-2,8a-methanocyclopenta[a]cyclopropa[e][10]annulen-4-yl)methyl butylcarbamate], for which the concentration giving a half-maximal response (EC50) was 1050 nM. As for `CC1=C[C@]23C(=O)[C@@H](C=C(COC(=O)NCc4ccccc4)[C@@H](O)[C@]2(O)[C@H]1O)[C@H]1[C@@H](C[C@H]3C)C1(C)C` [Example 8, ((1aR,2S,5R,5aR,6S,8aS,9R,10aR)-5,5a,6-trihydroxy-1,1,7,9-tetramethyl-11-oxo-1a,2,5,5a,6,9,10,10a-octahydro-1H-2,8a-methanocyclopenta[a]cyclopropa[e][10]annulen-4-yl)methyl benzylcarbamate], the half-maximal effective concentration (EC50) was found to be 4330 nM. Turning to `CC1=C[C@]23C(=O)[C@@H](C=C(COC(=O)N(C)C4CCCCC4)[C@@H](O)[C@]2(O)[C@H]1O)[C@H]1[C@@H](C[C@H]3C)C1(C)C` [Example 9, ((1aR,2S,5R,5aR,6S,8aS,9R,10aR)-5,5a,6-trihydroxy-1,1,7,9-tetramethyl-11-oxo-1a,2,5,5a,6,9,10,10a-octahydro-1H-2,8a-methanocyclopenta[a]cyclopropa[e][10]annulen-4-yl)methyl cyclohexyl(methyl)carbamate], the 50% effective concentration (EC50) came to 50000 nM. Regarding `CC1=C[C@]23C(=O)[C@@H](C=C(COC(=O)N4CCc5ccccc54)[C@@H](O)[C@]2(O)[C@H]1O)[C@H]1[C@@H](C[C@H]3C)C1(C)C` [Example 10, ((1aR,2S,5R,5aR,6S,8aS,9R,10aR)-5,5a,6-trihydroxy-1,1,7,9-tetramethyl-11-oxo-1a,2,5,5a,6,9,10,10a-octahydro-1H-2,8a-methanocyclopenta[a]cyclopropa[e][10]annulen-4-yl)methyl indoline-1-carboxylate], the EC50 was 278 nM. Then `CC1=C[C@]23C(=O)[C@@H](C=C(COC(=O)N4CCc5ccccc54)[C@@H](O)[C@]2(O)[C@H]1OC(=O)N1CCc2ccccc21)[C@H]1[C@@H](C[C@H]3C)C1(C)C` [Example 11, (1aR,2S,5R,5aS,6S,8aS,9R,10aR)-5,5a-dihydroxy-4-(((indoline-1-carbonyl)oxy)methyl)-1,1,7,9-tetramethyl-11-oxo-1a,2,5,5a,6,9,10,10a-octahydro-1H-2,8a-methanocyclopenta[a]cyclopropa[e][10]annulen-6-yl indoline-1-carboxylate], with 3500 nM; and `CC1=C[C@]23C(=O)[C@@H](C=C(COc4ncc(C(F)(F)F)cn4)[C@@H](O)[C@]2(O)[C@H]1O)[C@H]1[C@@H](C[C@H]3C)C1(C)C` [Example 12, (1aR,2S,5R,5aR,6S,8aS,9R,10aR)-5,5a,6-trihydroxy-1,1,7,9-tetramethyl-4-(((5-(trifluoromethyl)pyrimidin-2-yl)oxy)methyl)-1a,2,5,5a,6,9,10,10a-octahydro-1H-2,8a-methanocyclopenta[a]cyclopropa[e][10]annulen-11-one], with 5170 nM.
